# US20240158446A1, “CYCLIC COMPOUND HAVING SELECTIVE INHIBITORY ACTION ON KRAS OVER HRAS AND NRAS” (CHUGAI SEIYAKU KABUSHIKI KAISHA, priority 2021, published 2024)
# Columns and labels:
# [1] = target: GDP-bound HRAS wild-type protein (Homo sapiens, UniProt P01112); test: Binding to HRAS by surface plasmon resonance (SPR), Single Cycle Kinetics; conditions: SPR; GDP-bound HRAS wild-type protein vs GDP-bound KRAS wild-type protein; KD ratio class
# [2] = target: GDP-bound NRAS wild-type protein (Homo sapiens, UniProt P01111); test: Binding to NRAS by surface plasmon resonance (SPR), Single Cycle Kinetics; conditions: SPR; GDP-bound NRAS wild-type protein vs GDP-bound KRAS wild-type protein; KD ratio class
# [3] = target: GDP-bound KRAS wild-type protein (Homo sapiens, UniProt P01116); test: Binding to KRAS by surface plasmon resonance (SPR), Single Cycle Kinetics; conditions: SPR, Single Cycle Kinetics, 1:1 binding model; GDP-bound KRAS wild-type protein; read-out: KRAS KD
# GDP-bound KRAS wild-type protein, sequence (P01116 whole entry): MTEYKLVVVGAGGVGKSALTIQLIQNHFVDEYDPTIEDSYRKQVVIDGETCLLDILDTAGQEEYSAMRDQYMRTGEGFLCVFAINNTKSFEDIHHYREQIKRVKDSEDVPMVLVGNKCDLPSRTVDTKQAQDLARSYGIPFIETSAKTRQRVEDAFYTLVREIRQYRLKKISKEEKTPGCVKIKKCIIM
# GDP-bound HRAS wild-type protein, sequence (P01112 whole entry): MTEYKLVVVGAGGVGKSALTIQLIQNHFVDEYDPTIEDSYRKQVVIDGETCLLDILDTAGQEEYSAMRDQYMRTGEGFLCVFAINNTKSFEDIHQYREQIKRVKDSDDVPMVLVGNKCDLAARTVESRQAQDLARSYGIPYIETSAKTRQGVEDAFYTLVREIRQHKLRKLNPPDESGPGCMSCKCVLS
# GDP-bound NRAS wild-type protein, sequence (P01111 whole entry): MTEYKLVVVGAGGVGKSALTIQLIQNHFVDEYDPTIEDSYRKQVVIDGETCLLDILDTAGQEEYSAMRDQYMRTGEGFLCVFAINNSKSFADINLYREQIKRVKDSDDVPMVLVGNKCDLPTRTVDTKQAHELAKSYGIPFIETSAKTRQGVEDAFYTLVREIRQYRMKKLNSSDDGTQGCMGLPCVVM
SMILES,HRAS/KRAS (ratio of KD value for HRAS to KD value for KRAS) [1],NRAS/KRAS (ratio of KD value for NRAS to KD value for KRAS) [2],Kd [3] [nM]
CCO[C@@H]1C[C@H]2C(=O)NC3(CCC3)C(=O)N(C)[C@@H](C3CCCC3)C(=O)N(C)[C@H](C(=O)N(C)CC)CC(=O)N(C)[C@@H](CC)C(=O)N[C@@H]([C@@H](C)CC)C(=O)N(C)CC(=O)N(C)[C@H]3C/C=C\CCN(C3=O)[C@@H](CC3CCCCC3)C(=O)N(C)CC(=O)N[C@@H](CCc3cc(F)c(C(F)(F)F)c(F)c3)C(=O)N2C1 [PP1552],A (a compound having 10 or more and less than 20 is denoted as A),A (a compound having 10 or more and less than 20 is denoted as A),0.19
"CCO[C@@H]1C[C@H]2C(=O)NC3(CCC3)C(=O)N(C)[C@@H](C3CCCC3)C(=O)N(C)[C@H](C(=O)N(C)CC)CC(=O)N(C)[C@@H](CC)C(=O)N[C@@H]([C@@H](C)CC)C(=O)N(C)CC(=O)N(C)[C@H]3C/C=C\CCN(C3=O)[C@@H](CC3CCC(F)(F)CC3)C(=O)N(C)CC(=O)N[C@@H](CCc3cc(F)c(C(F)(F)F)c(F)c3)C(=O)N2C1 [PP1553, (2S,8S,12R,14S,20S,23S,27S,30S,36S,38Z)-20-cyclopentyl-2-[(4,4-difluorocyclohexyl)methyl]-8-[2-[3,5-difluoro-4-(trifluoromethyl)phenyl]ethyl]-12-ethoxy-N,27-diethyl-N,4,19,22,26,32,35-heptamethyl-30-[(1S)-1-methylpropyl]-3,6,9,15,18,21,25,28,31,34,42-undecaoxo-spiro[1,4,7,10,16,19,22,26,29,32,35-undecazatricyclo[34.5.1.0^10,14]dotetracont-38-ene-17,1′-cyclobutane]-23-carboxamide]",A (a compound having 10 or more and less than 20 is denoted as A),A (a compound having 10 or more and less than 20 is denoted as A),0.13
CCO[C@@H]1C[C@H]2C(=O)NC3(CC(C)(C)C3)C(=O)N(C)[C@@H](C3CCCC3)C(=O)N(C)[C@H](C(=O)N(C)C)CC(=O)N(C)[C@@H](CC)C(=O)N[C@@H]([C@@H](C)CC)C(=O)N(C)CC(=O)N(C)[C@H]3C/C=C\CCN(C3=O)[C@@H](Cc3ccc(C(F)(F)F)cc3)C(=O)N(C)CC(=O)N[C@@H](CCc3ccc(C(F)(F)F)c(OC)c3)C(=O)N2C1 [PP1559],A (a compound having 10 or more and less than 20 is denoted as A),A (a compound having 10 or more and less than 20 is denoted as A),0.047
CCC[C@H]1C(=O)N[C@@H]([C@@H](C)CC)C(=O)N(C)CC(=O)N(C)[C@H]2C/C=C\CCN(C2=O)[C@@H](Cc2ccc(C(F)(F)F)cc2)C(=O)N(C)CC(=O)N[C@@H](CCc2ccc(C(F)(F)F)c(OC)c2)C(=O)N2C[C@H](OCC)C[C@H]2C(=O)NC2(CC(C)(C)C2)C(=O)N(C)[C@@H](C2CCCC2)C(=O)N(C)[C@H](C(=O)N(C)C)CC(=O)N1C [PP1560],B (a compound having 3 or more and less than 10 is denoted as B),A (a compound having 10 or more and less than 20 is denoted as A),0.069
CCO[C@@H]1C[C@H]2C(=O)NC3(CC(C)(C)C3)C(=O)N(C)[C@@H](C3CCCC3)C(=O)N(C)[C@H](C(=O)N(C)C)CC(=O)N(C)[C@@H](CC3CC3)C(=O)N[C@@H]([C@@H](C)CC)C(=O)N(C)CC(=O)N(C)[C@H]3C/C=C\CCN(C3=O)[C@@H](Cc3ccc(C(F)(F)F)cc3)C(=O)N(C)CC(=O)N[C@@H](CCc3ccc(C(F)(F)F)c(OC)c3)C(=O)N2C1 [PP1563],A (a compound having 10 or more and less than 20 is denoted as A),A (a compound having 10 or more and less than 20 is denoted as A),0.048
CCO[C@@H]1C[C@H]2C(=O)NC3(CC(C)(C)C3)C(=O)N(C)[C@@H](C3CCCC3)C(=O)N(C)[C@H](C(=O)N(C)C)CC(=O)N(C)[C@@H](CC3CC3)C(=O)N[C@@H]([C@@H](C)CC)C(=O)N(C)CC(=O)N(C)[C@H]3C/C=C\CCN(C3=O)[C@@H](Cc3ccc(C(F)(F)F)cc3)C(=O)N(C)CC(=O)N[C@@H](CCc3cc(F)c(C(F)(F)F)c(F)c3)C(=O)N2C1 [PP1568],A (a compound having 10 or more and less than 20 is denoted as A),A (a compound having 10 or more and less than 20 is denoted as A),0.031
CCCOC[C@H]1C(=O)N[C@@H]([C@@H](C)CC)C(=O)N(C)CC(=O)N(C)[C@H]2C/C=C\CCN(C2=O)[C@@H](Cc2ccc(C(F)(F)F)cc2)C(=O)N(C)CC(=O)N[C@@H](CCc2cc(F)c(C(F)(F)F)c(F)c2)C(=O)N2C[C@H](OCC)C[C@H]2C(=O)NC2(CCC2)C(=O)N(C)[C@@H](C2CCCC2)C(=O)N(C)[C@H](C(=O)N(C)CC)CC(=O)N1C [PP1569],B (a compound having 3 or more and less than 10 is denoted as B),A (a compound having 10 or more and less than 20 is denoted as A),0.11
CC[C@H](C)[C@@H]1NC(=O)[C@H](CC2CC2)N(C)C(=O)C[C@@H](C(=O)N(C)CC)N(C)C(=O)[C@H](C2CCCC2)N(C)C(=O)C2(CC(C)(C)C2)NC(=O)[C@@H]2C[C@@H](F)CN2C(=O)[C@H](CCc2cc(F)c(C(F)(F)F)c(F)c2)NC(=O)CN(C)C(=O)[C@H](Cc2ccc(C(F)(F)F)cc2)N2CC/C=C\C[C@@H](C2=O)N(C)C(=O)CN(C)C1=O [PP1570],A (a compound having 10 or more and less than 20 is denoted as A),AA (a compound having 20 or more is denoted as AA),0.051
CC[C@H](C)[C@@H]1NC(=O)[C@H](CC2CC2)N(C)C(=O)C[C@@H](C(=O)N(CC)CC)N(C)C(=O)[C@H](C2CCCC2)N(C)C(=O)C2(CC(C)(C)C2)NC(=O)[C@@H]2C[C@@H](F)CN2C(=O)[C@H](CCc2cc(F)c(C(F)(F)F)c(F)c2)NC(=O)CN(C)C(=O)[C@H](Cc2ccc(C(F)(F)F)cc2)N2CC/C=C\C[C@@H](C2=O)N(C)C(=O)CN(C)C1=O [PP1571],A (a compound having 10 or more and less than 20 is denoted as A),A (a compound having 10 or more and less than 20 is denoted as A),0.15
CCCOC[C@H]1C(=O)N[C@@H]([C@@H](C)CC)C(=O)N(C)CC(=O)N(C)[C@H]2C/C=C\CCN(C2=O)[C@@H](Cc2ccc(C(F)(F)F)cc2)C(=O)N(C)CC(=O)N[C@@H](CCc2cc(F)c(C(F)(F)F)c(F)c2)C(=O)N2C[C@H](OCC)C[C@H]2C(=O)NC2(CC(C)(C)C2)C(=O)N(C)[C@@H](C2CCCC2)C(=O)N(C)[C@H](C(=O)N(C)CC)CC(=O)N1C [PP1572],A (a compound having 10 or more and less than 20 is denoted as A),A (a compound having 10 or more and less than 20 is denoted as A),0.078
"CCO[C@@H]1C[C@H]2C(=O)NC3(CCCC3)C(=O)N(C)[C@@H](C3CCCC3)C(=O)N(C)[C@H](C(=O)N(C)CC)CC(=O)N(C)[C@@H](CC(C)C)C(=O)N[C@@H]([C@@H](C)CC)C(=O)N(C)CC(=O)N(C)[C@H]3C/C=C\CCN(C3=O)[C@@H](Cc3ccc(C(F)(F)F)cc3)C(=O)N(C)CC(=O)N[C@@H](CCc3cc(F)c(C(F)(F)F)c(F)c3)C(=O)N2C1 [PP1574, (2S,8S,12R,14S,20S,23S,27S,30S,36S,38Z)-20-cyclopentyl-8-[2-[3,5-difluoro-4-(trifluoromethyl)phenyl]ethyl]-12-ethoxy-N-ethyl-27-isobutyl-N,4,19,22,26,32,35-heptamethyl-30-[(1S)-1-methylpropyl]-3,6,9,15,18,21,25,28,31,34,42-undecaoxo-2-[[4-(trifluoromethyl)phenyl]methyl]spiro[1,4,7,10,16,19,22,26,29,32,35-undecazatricyclo[34.5.1.0^10,14]dotetracont-38-ene-17,1′-cyclopentane]-23-carboxamide]",A (a compound having 10 or more and less than 20 is denoted as A),A (a compound having 10 or more and less than 20 is denoted as A),0.15
CCCOC[C@H]1C(=O)N[C@@H]([C@@H](C)CC)C(=O)N(C)CC(=O)N(C)[C@H]2C/C=C\CCN(C2=O)[C@@H](Cc2ccc(C(F)(F)F)cc2)C(=O)N(C)CC(=O)N[C@@H](CCc2cc(F)c(C(F)(F)F)c(F)c2)C(=O)N2C[C@H](OCC)C[C@H]2C(=O)NC2(CC(C)(C)C2)C(=O)N(C)[C@@H](C2CCCC2)C(=O)N(C)[C@H](C(=O)N(CC)CC)CC(=O)N1C [PP1575],B (a compound having 3 or more and less than 10 is denoted as B),B (a compound having 3 or more and less than 10 is denoted as B),0.55
CCO[C@@H]1C[C@H]2C(=O)NC3(CC(C)(C)C3)C(=O)N(C)[C@@H](C3CCCC3)C(=O)N(C)[C@H](C(=O)N(C)CC)CC(=O)N(C)[C@@H](CC)C(=O)N[C@@H]([C@@H](C)CC)C(=O)N(C)CC(=O)N(C)[C@H]3C/C=C\CCN(C3=O)[C@@H](Cc3ccc(C(F)(F)F)cc3)C(=O)N(C)CC(=O)N[C@@H](CCc3cc(F)c(C(F)(F)F)c(F)c3)C(=O)N2C1 [PP1579],B (a compound having 3 or more and less than 10 is denoted as B),A (a compound having 10 or more and less than 20 is denoted as A),0.087
